Patent US6303591A, “21-hydroxy-6,19-oxidoprogesterone (21OH-6OP) and its use as medicament for treating excess of glucocorticoids” (Applied Research Systems ARS Holding NV, priority 1997, dated 2001)
“Also recorded” adds a separate entry of the source.

Columns and labels:
[1] = target: T1, GR from rat thymus (thymus cytosol) (Rattus norvegicus, UniProt P06536); assay: displacement of (^3 H)-B binding to GR, rat thymus cytosol
T1 construct: Thymuses were used as a source of GR; from tissue; host or cells: thymus cytosol, adrenalectomized male Sprague-Dawley rats
T1 sequence (P06536 1-795): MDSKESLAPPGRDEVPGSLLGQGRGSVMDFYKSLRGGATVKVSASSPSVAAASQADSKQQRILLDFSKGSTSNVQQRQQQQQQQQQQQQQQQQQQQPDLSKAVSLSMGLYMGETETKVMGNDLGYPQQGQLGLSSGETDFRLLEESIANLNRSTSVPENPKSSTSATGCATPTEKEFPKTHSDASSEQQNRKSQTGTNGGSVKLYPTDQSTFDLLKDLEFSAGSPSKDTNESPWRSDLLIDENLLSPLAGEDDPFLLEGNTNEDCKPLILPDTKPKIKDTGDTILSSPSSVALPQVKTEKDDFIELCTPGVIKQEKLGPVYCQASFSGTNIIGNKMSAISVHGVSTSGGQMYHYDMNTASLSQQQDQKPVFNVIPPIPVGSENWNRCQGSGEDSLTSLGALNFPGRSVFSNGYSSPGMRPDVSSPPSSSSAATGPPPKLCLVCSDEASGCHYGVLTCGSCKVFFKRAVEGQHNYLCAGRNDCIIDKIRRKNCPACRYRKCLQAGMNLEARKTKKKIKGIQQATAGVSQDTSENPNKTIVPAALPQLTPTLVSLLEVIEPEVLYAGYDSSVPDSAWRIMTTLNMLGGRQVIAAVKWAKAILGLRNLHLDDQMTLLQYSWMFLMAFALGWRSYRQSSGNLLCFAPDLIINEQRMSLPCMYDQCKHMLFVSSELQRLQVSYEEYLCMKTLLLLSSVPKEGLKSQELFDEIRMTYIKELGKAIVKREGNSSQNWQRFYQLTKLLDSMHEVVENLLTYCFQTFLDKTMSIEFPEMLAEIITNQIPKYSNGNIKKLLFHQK
Experimental: (§1) Binding Assay: Adrenalectomized male Sprague-Dawley rats were bled to death by heart puncture. Cold 0.9% NaCI was injected profusely through the aorta until organs were completely blanched. Thymuses were used as a source of GR and kidneys as a source of MR. Homogenization and incubation conditions were performed as previously described, (14) and (15), respectively. Briefly, homogenates performed in cold TEGM buffer at pH 7.4 (0.1 M Tris-HCl, 10 mM EDTA, 10 mM α-mercaptoethanol, 20 mM Na2 MoO4, 25% glycerol, 0.1 mM PMSF, 2.0 TIU/ml aprotinin and 1 mg% Leupeptin) were centrifuged at 37,000 rev. for 30 min at 0° C. Supernatants from this centrifugation are referred to as "cytosol". […] (^3 H)-P4 binding to uterus PR was assayed on immature female rats according to Jordan et al (16).
The displacement curve of 6,19-oxidoprogesterone is included for comparative purposes.

[2] = system: tyrosine aminotransferase (TAT) induction in rat hepatocytes; assay: TAT induction in rat hepatocytes (agonism); assay type: cell-based; settings: FIGS. 3-B and 4 (hatched bars), no agonist added
Experimental: (§2) FIG. 3: Biological Properties of 21OH-6OP: A) Glycogen storage in vivo: 100 μg steroid/100 g body weight of male rats were injected as indicated in Example 1. Liver glycogen was purified and quantified with Krisman's reagent (17). Controls were injected with vehicle. Results are expressed as means±SEM (n=6). (*): different from controls P<0.02. B) TAT induction in vitro: rat hepatocytes were incubated for 5 h in HAM-F12 medium in the presence of 100 nM steroid and TAT activity was measured. Results are expressed as percentage of enzyme activity (means±SEM, n=4) over controls incubated in the presence of vehicle. (*) different from controls P<0.01. C) Sodium-retaining activity: adrenalectomized rats were treated with the indicated dose of steroids. Results are expressed as the ratio of sodium-excretion rates of steroid-injected animals to the excretion rates of rats injected with vehicle.
(§3) Hatched bars represent incubations performed in the presence of vehicle instead of agonist.
(§4) Bioassay : Liver glycogen deposition was measured on adrenalectoniized male Sprague-Dawley rats (180-220 g) as follows: steroids were dissolved in ethanol/propylene glycol/0.9% NaCl solution (3:3:34) and 100 μg steroid/l00 g body weight were injected i.m. the previous night. On the morning of the experiment this dose was reinjected intraperitoneally. Three hours later the rats were killed by cervical dislocation and livers were immediately removed. Glycogen purification and quantification were carried out according to Krisman's method (17). Na^+ -retaining properties were measured as described (5). Tyrosine aminotransferase (TAT) was induced in rat hepatocytes isolated by the procedure of Fry et al (18). TAT activity was determined according to Granner and Tomkins (19).
(§5) The basal TAT activity in hepatocytes, denominated control in the figure, was measured by adding vehicle (final concentration: 0.2% ethanol) to the culture. […] 2.5 μM 21OH-6OP inhibits 80% of TAT induction when concubated with B or DXM.

[3] = system: Na^+ retention (sodium-excretion rate); assay: Na^+ -retaining activity, adrenalectomized rats; assay type: in vivo, rat
Experimental: as §2, §4

[4] = system: TAT induction in hepatocytes (GR); assay: antagonism of TAT induction by DXM or B in hepatocytes; assay type: cell-based, rat
Experimental: as §3, §4, §5

[5] = target: T2, type II sites (GR) (Rattus norvegicus, UniProt P06536); assay: tracer binding (Scatchard) to kidney type II sites (GR); settings: kidney cytosol, 2.5 μM 21OH-6OP
T2 construct: type II receptors in kidney cytosols; from tissue; host or cells: kidney cytosol, adrenalectomized male Sprague-Dawley rats
T2 sequence (P06536 1-795): T1 sequence (P06536 1-795)
Experimental: as §1
To study the binding of ALDO to kidney- MR without the competitive influence of the relatively more abundant GR, GR was removed with the specific ligand RU28362 (7).
The calculated Kd for type I sites in different conditions ranges between 0.4 and 1 nM (Table 1) which is at least eighty times higher than the affinity for type II sites.

**Q.** For `C[C@]12CC[C@H]3[C@@H](C[C@H]4OC[C@@]35CCC(=O)C=C45)[C@@H]1CC[C@@H]2C(=O)CO` [21OH-6OP, 21-hydroxy-6,19-oxidoprogesterone], which “increase of binding to GR by 21-hydroxyl, relative to 6OP” value ([1]; 21OH-6OP vs 6OP) is on record?
**A.** over 40 times

**Q.** And the “saturation predicted according to mass action” value ([1]; FIG. 2 a, predicted)?
**A.** 95%

**Q.** And the tracer displacement ([1]; FIG. 2 a, 720 min)?
**A.** 75%

**Q.** And the Kd ([1]; rat thymus cytosol, 5 nM (^3 H)-B, 12 h at 0° C., read-out: RBA for GR (Kd))?
**A.** 0.125 µM

**Q.** What about the “TAT induction (in words)” value [2] of the same compound?
**A.** neither 6OP nor 21OH-6OP evoke these responses; also recorded: Neither 6OP nor 21OH-6OP facilitate TAT induction

**Q.** And the “Na^+ -retaining (MC) properties (in words)” value ([3]; FIG. 3-C)?
**A.** almost devoid of MC properties; also recorded: then loosing activity at still higher doses

**Q.** What about the “maximum Na^+ retention” value ([3]; maximum of parabolic dose-response, at high doses) of the same compound?
**A.** 40%

**Q.** What about the “inhibition of TAT induction by B” value ([4]; 2.5 μM steroid vs 100 nM B) of the same compound?
**A.** 80%

**Q.** What about the “inhibition of TAT induction by DXM” value ([4]; 2.5 μM steroid vs 100 nM DXM) of the same compound?
**A.** 80%

**Q.** And the “antagonism of TAT induction by B (in words)” value ([4]; 2.5 μM steroid, 100 nM B)?
**A.** shows antagonist effect on TAT induction; also recorded: antagonize TAT induction by corticosterone and decamethasone; also recorded: significantly inhibited

**Q.** What about the “antagonism of TAT induction by DXM (in words)” value ([4]; 2.5 μM steroid, 100 nM DXM) of the same compound?
**A.** shows antagonist effect on TAT induction; also recorded: antagonize TAT induction by corticosterone and decamethasone; also recorded: significantly inhibited

**Q.** What about the “masking of (^3 H)-ALDO cross-reaction with GR / block of type II receptors” value [5] of the same compound?
**A.** able to mask the cross reaction of (^3 H)-ALDO with GR; also recorded: able to block type II receptors in kidney cytosols
